{"source": "PubChem BioAssay (NCI)", "test_in_all_cases": "growth of human tumour cells (NCI), 48 h", "key": {"[1]": {"test_system": "COLO 205 colon"}, "[2]": {"test_system": "K-562 leukemia"}, "[3]": {"test_system": "MDA-MB-231 breast"}, "[4]": {"test_system": "A549 NSCLC"}, "[5]": {"test_system": "MCF7 breast"}, "[6]": {"test_system": "RXF 393 renal"}, "[7]": {"test_system": "HS 578T breast"}, "[8]": {"test_system": "OVCAR-5 ovarian"}, "[9]": {"test_system": "SNB-19 CNS"}, "[10]": {"test_system": "HOP-92 NSCLC"}, "[11]": {"test_system": "CCRF-CEM leukemia"}, "[12]": {"test_system": "IGROV1 ovarian"}, "[13]": {"test_system": "HT29 colon"}, "[14]": {"test_system": "T-47D breast"}, "[15]": {"test_system": "SK-MEL-5 melanoma"}, "[16]": {"test_system": "U251 CNS"}, "[17]": {"test_system": "NCI-H460 lung"}, "[18]": {"test_system": "NCI-H522 lung"}, "[19]": {"test_system": "UO-31 renal"}, "[20]": {"test_system": "SF-268 CNS"}, "[21]": {"test_system": "HCC-2998 colon"}, "[22]": {"test_system": "SK-MEL-28 melanoma"}, "[23]": {"test_system": "CAKI-1 renal"}, "[24]": {"test_system": "OVCAR-3 ovarian"}, "[25]": {"test_system": "HCT-116 colon"}, "[26]": {"test_system": "SN12C renal"}, "[27]": {"test_system": "SNB-75 CNS"}, "[28]": {"test_system": "SW-620 colon"}, "[29]": {"test_system": "NCI-H23 lung"}, "[30]": {"test_system": "UACC-62 melanoma"}, "[31]": {"test_system": "SF-295 CNS"}, "[32]": {"test_system": "UACC-257 melanoma"}, "[33]": {"test_system": "BT-549 breast"}, "[34]": {"test_system": "MOLT-4 leukemia"}, "[35]": {"test_system": "HOP-62 NSCLC"}, "[36]": {"test_system": "OVCAR-8 ovarian"}, "[37]": {"test_system": "PC-3 prostate"}, "[38]": {"test_system": "SK-OV-3 ovarian"}, "[39]": {"test_system": "SF-539 CNS"}, "[40]": {"test_system": "SK-MEL-2 melanoma"}, "[41]": {"test_system": "RPMI-8226 leukemia"}, "[42]": {"test_system": "NCI/ADR-RES ovarian"}, "[43]": {"test_system": "MDA-MB-435"}, "[44]": {"test_system": "ACHN renal"}, "[45]": {"test_system": "M14 melanoma"}, "[46]": {"test_system": "HCT-15 colon"}, "[47]": {"test_system": "KM12 colon"}, "[48]": {"test_system": "DU-145 prostate"}, "[49]": {"test_system": "OVCAR-4 ovarian"}, "[50]": {"test_system": "TK-10 renal"}, "[51]": {"test_system": "LOX IMVI melanoma"}, "[52]": {"test_system": "786-0 renal"}, "[53]": {"test_system": "EKVX NSCLC"}}, "note": "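In this assay, cells in 96-well plates receive the compound at five concentrations for 48 hours. Endpoints are linearly interpolated between the surrounding concentrations. GI50 marks 50% less growth. Definition used: TGI = concentration required for complete inhibition of growth.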", "data": [{"molecule": "C=CCC(NCc1ccccc1)c1cn(C(=O)OCC)c2ccccc12", "note": "(stereo unspecified)", "values": [{"measurement": "GI50", "setting": "[1]", "value": 28, "unit": "µM"}, {"measurement": "TGI", "setting": "[1]", "value": "> 100", "unit": "µM"}, {"measurement": "GI50", "setting": "[2]", "value": 2.37, "unit": "µM"}, {"measurement": "TGI", "setting": "[2]", "value": 15, "unit": "µM"}, {"measurement": "GI50", "setting": "[3]", "value": 18.2, "unit": "µM"}, {"measurement": "TGI", "setting": "[3]", "value": 44.1, "unit": "µM"}, {"measurement": "GI50", "setting": "[4]", "value": 31.5, "unit": "µM"}, {"measurement": "TGI", "setting": "[4]", "value": "> 100", "unit": "µM"}, {"measurement": "GI50", "setting": "[5]", "value": 51.8, "unit": "µM"}, {"measurement": "TGI", "setting": "[5]", "value": "> 100", "unit": "µM"}, {"measurement": "GI50", "setting": "[6]", "value": 19, "unit": "µM"}, {"measurement": "TGI", "setting": "[6]", "value": 46.5, "unit": "µM"}, {"measurement": "GI50", "setting": "[7]", "value": 20, "unit": "µM"}, {"measurement": "TGI", "setting": "[7]", "value": 63.8, "unit": "µM"}, {"measurement": "GI50", "setting": "[8]", "value": 16, "unit": "µM"}, {"measurement": "TGI", "setting": "[8]", "value": 44.6, "unit": "µM"}, {"measurement": "GI50", "setting": "[9]", "value": 64.3, "unit": "µM"}, {"measurement": "TGI", "setting": "[9]", "value": "> 100", "unit": "µM"}, {"measurement": "GI50", "setting": "[10]", "value": 13.8, "unit": "µM"}, {"measurement": "TGI", "setting": "[10]", "value": 40.7, "unit": "µM"}, {"measurement": "GI50", "setting": "[11]", "value": 19.4, "unit": "µM"}, {"measurement": "TGI", "setting": "[11]", "value": 42.1, "unit": "µM"}, {"measurement": "GI50", "setting": "[12]", "value": 18.5, "unit": "µM"}, {"measurement": "TGI", "setting": "[12]", "value": 71.7, "unit": "µM"}, {"measurement": "GI50", "setting": "[13]", "value": 29.6, "unit": "µM"}, {"measurement": "TGI", "setting": "[13]", "value": "> 100", "unit": "µM"}, {"measurement": "GI50", "setting": "[14]", "value": 33.3, "unit": "µM"}, {"measurement": "TGI", "setting": "[14]", "value": "> 100", "unit": "µM"}, {"measurement": "GI50", "setting": "[15]", "value": 13.9, "unit": "µM"}, {"measurement": "TGI", "setting": "[15]", "value": 28, "unit": "µM"}, {"measurement": "GI50", "setting": "[16]", "value": 19.2, "unit": "µM"}, {"measurement": "TGI", "setting": "[16]", "value": 39.3, "unit": "µM"}, {"measurement": "GI50", "setting": "[17]", "value": "> 100", "unit": "µM"}, {"measurement": "TGI", "setting": "[17]", "value": "> 100", "unit": "µM"}, {"measurement": "GI50", "setting": "[18]", "value": 19.8, "unit": "µM"}, {"measurement": "TGI", "setting": "[18]", "value": 42.6, "unit": "µM"}, {"measurement": "GI50", "setting": "[19]", "value": 30.4, "unit": "µM"}, {"measurement": "TGI", "setting": "[19]", "value": "> 100", "unit": "µM"}, {"measurement": "GI50", "setting": "[20]", "value": "> 100", "unit": "µM"}, {"measurement": "TGI", "setting": "[20]", "value": "> 100", "unit": "µM"}, {"measurement": "GI50", "setting": "[21]", "value": 14, "unit": "µM"}, {"measurement": "TGI", "setting": "[21]", "value": 28.3, "unit": "µM"}, {"measurement": "GI50", "setting": "[22]", "value": 41.5, "unit": "µM"}, {"measurement": "TGI", "setting": "[22]", "value": "> 100", "unit": "µM"}, {"measurement": "GI50", "setting": "[23]", "value": 18.5, "unit": "µM"}, {"measurement": "TGI", "setting": "[23]", "value": 41.6, "unit": "µM"}, {"measurement": "GI50", "setting": "[24]", "value": 17.3, "unit": "µM"}, {"measurement": "TGI", "setting": "[24]", "value": 33.7, "unit": "µM"}, {"measurement": "GI50", "setting": "[25]", "value": 13, "unit": "µM"}, {"measurement": "TGI", "setting": "[25]", "value": 25.7, "unit": "µM"}, {"measurement": "GI50", "setting": "[26]", "value": 25.7, "unit": "µM"}, {"measurement": "TGI", "setting": "[26]", "value": 60.9, "unit": "µM"}, {"measurement": "GI50", "setting": "[27]", "value": 43.1, "unit": "µM"}, {"measurement": "TGI", "setting": "[27]", "value": "> 100", "unit": "µM"}, {"measurement": "GI50", "setting": "[28]", "value": 18.3, "unit": "µM"}, {"measurement": "TGI", "setting": "[28]", "value": 41.7, "unit": "µM"}, {"measurement": "GI50", "setting": "[29]", "value": 17.7, "unit": "µM"}, {"measurement": "TGI", "setting": "[29]", "value": 43.6, "unit": "µM"}, {"measurement": "GI50", "setting": "[30]", "value": 22.6, "unit": "µM"}, {"measurement": "TGI", "setting": "[30]", "value": 50.6, "unit": "µM"}, {"measurement": "GI50", "setting": "[31]", "value": 21.7, "unit": "µM"}, {"measurement": "TGI", "setting": "[31]", "value": 47.4, "unit": "µM"}, {"measurement": "GI50", "setting": "[32]", "value": 23.8, "unit": "µM"}, {"measurement": "TGI", "setting": "[32]", "value": 49.5, "unit": "µM"}, {"measurement": "GI50", "setting": "[33]", "value": 21.3, "unit": "µM"}, {"measurement": "TGI", "setting": "[33]", "value": 46.9, "unit": "µM"}, {"measurement": "GI50", "setting": "[34]", "value": 10, "unit": "µM"}, {"measurement": "TGI", "setting": "[34]", "value": 38.1, "unit": "µM"}, {"measurement": "GI50", "setting": "[35]", "value": 24.6, "unit": "µM"}, {"measurement": "TGI", "setting": "[35]", "value": 64.6, "unit": "µM"}, {"measurement": "GI50", "setting": "[36]", "value": 24.1, "unit": "µM"}, {"measurement": "TGI", "setting": "[36]", "value": 61.1, "unit": "µM"}, {"measurement": "GI50", "setting": "[37]", "value": 22.9, "unit": "µM"}, {"measurement": "TGI", "setting": "[37]", "value": 96.4, "unit": "µM"}, {"measurement": "GI50", "setting": "[38]", "value": 44.7, "unit": "µM"}, {"measurement": "TGI", "setting": "[38]", "value": "> 100", "unit": "µM"}, {"measurement": "GI50", "setting": "[39]", "value": 5.47, "unit": "µM"}, {"measurement": "TGI", "setting": "[39]", "value": 18.8, "unit": "µM"}, {"measurement": "GI50", "setting": "[40]", "value": 33.1, "unit": "µM"}, {"measurement": "TGI", "setting": "[40]", "value": "> 100", "unit": "µM"}, {"measurement": "GI50", "setting": "[41]", "value": 13.1, "unit": "µM"}, {"measurement": "TGI", "setting": "[41]", "value": 35.8, "unit": "µM"}, {"measurement": "GI50", "setting": "[42]", "value": 21.4, "unit": "µM"}, {"measurement": "TGI", "setting": "[42]", "value": 52.1, "unit": "µM"}, {"measurement": "GI50", "setting": "[43]", "value": 20.2, "unit": "µM"}, {"measurement": "TGI", "setting": "[43]", "value": 45.9, "unit": "µM"}, {"measurement": "GI50", "setting": "[44]", "value": 18.5, "unit": "µM"}, {"measurement": "TGI", "setting": "[44]", "value": 36.5, "unit": "µM"}, {"measurement": "GI50", "setting": "[45]", "value": 18.6, "unit": "µM"}, {"measurement": "TGI", "setting": "[45]", "value": 39.2, "unit": "µM"}, {"measurement": "GI50", "setting": "[46]", "value": 20.9, "unit": "µM"}, {"measurement": "TGI", "setting": "[46]", "value": 55, "unit": "µM"}, {"measurement": "GI50", "setting": "[47]", "value": 28.4, "unit": "µM"}, {"measurement": "TGI", "setting": "[47]", "value": "> 100", "unit": "µM"}, {"measurement": "GI50", "setting": "[48]", "value": 20.8, "unit": "µM"}, {"measurement": "TGI", "setting": "[48]", "value": 60.7, "unit": "µM"}, {"measurement": "GI50", "setting": "[49]", "value": 51.5, "unit": "µM"}, {"measurement": "TGI", "setting": "[49]", "value": "> 100", "unit": "µM"}, {"measurement": "GI50", "setting": "[50]", "value": 16.5, "unit": "µM"}, {"measurement": "TGI", "setting": "[50]", "value": 36.6, "unit": "µM"}, {"measurement": "GI50", "setting": "[51]", "value": 17, "unit": "µM"}, {"measurement": "TGI", "setting": "[51]", "value": 30.9, "unit": "µM"}, {"measurement": "GI50", "setting": "[52]", "value": 18.7, "unit": "µM"}, {"measurement": "TGI", "setting": "[52]", "value": 38.8, "unit": "µM"}, {"measurement": "GI50", "setting": "[53]", "value": 20.7, "unit": "µM"}, {"measurement": "TGI", "setting": "[53]", "value": 55.4, "unit": "µM"}]}]}
